Data: paper PMC11803819, “Chemical composition, antioxidant activities, and enzyme inhibitory effects of Lespedeza bicolour Turcz. essential oil” (Journal of Enzyme Inhibition and Medicinal Chemistry, 2025)
Converted amounts (≈) assume the structure as drawn.

Legend:
[1] = system: acetylcholinesterase (AChE); details: previous studies; cited from earlier work
[2] = ABTS radical scavenging assay; details: positive control
Protocol: The experimental procedure is derived from the previous methods with some modifications[35]^,[36]. A mixture of 7.0 mM 2,2-azinobis(3-ethylbenzothiazoline-6-sulfonate) (ABTS) solution and 2.6 mM potassium persulfate was prepared to generate the ABTS^•+ free radical. The mixture was subsequently stored in the dark at room temperature for 12 h, facilitating the entire generation of the ABTS^•+ free radical. Additionally, ethanolic EO solutions were prepared at 50, 25, 10, 5, 2.5, and 1 mg/mL concentrations. A microplate reader (Epoch, Biotech company, Minneapolis, MN, USA) was utilised to ascertain the absorbance of the solution, delineated as the absorbance at 734 nm six minutes post-initiation of the reaction. For comparison, ethanol was used as the blank and gradient-diluted solvent. Meanwhile, 0.5 mg/mL 6‐hydroxy‐2,5,7,8‐tetramethylchroman‐2‐carboxylic acid (Trolox) was utilised as the positive control. The ABTS radical scavenging capacity (RSC%) was calculated using the Equation (1). (1) RSC%=A0−A/A0×100% where A0 and A are the absorbance of 200 μL diluted ABTS^•+ solution mixed with 50 μL ethanol and 50 μL sample solution, respectively, at 734 nm. IC50 was then calculated. All tests were performed in triplicates.

[3] = DPPH radical scavenging assay; details: positive control
Protocol: The experimental procedure was adapted from previous research with minor modifications. The concentrations of Trolox (positive control) and the mother solution of the essential oil EO were 1.0 mg/mL and 20 mg/mL, respectively, in an ethanolic system. 50 μL of the positive control or EO solution was pipetted into a 96‐well microplate and 200 μL of a 2,2-diphenyl-1-picrylhydrazyl (DPPH) solution. The microplate was incubated in the dark at 25 °C for 30 min, and then the absorbance was measured at 517 nm using an Epoch microplate absorbance spectrophotometer (Epoch, Biotech company, Minneapolis, MN, USA). The DPPH radical scavenging capacity (RSC%) was calculated using the Equation (2). […] (2) RSC%=(1−ASample−ASample Blank/AControl)×100% where, ASample is the absorbance of the tested sample at different concentrations, AControl is the absorbance of the control (ethanolic DPPH solution), and ASample Blank is the absorbance of the ethanol sample without DPPH.

β-lactamase = details: cited from earlier work

acetylcholinesterase (AChE), sequence (P22303 32-614, species assumed): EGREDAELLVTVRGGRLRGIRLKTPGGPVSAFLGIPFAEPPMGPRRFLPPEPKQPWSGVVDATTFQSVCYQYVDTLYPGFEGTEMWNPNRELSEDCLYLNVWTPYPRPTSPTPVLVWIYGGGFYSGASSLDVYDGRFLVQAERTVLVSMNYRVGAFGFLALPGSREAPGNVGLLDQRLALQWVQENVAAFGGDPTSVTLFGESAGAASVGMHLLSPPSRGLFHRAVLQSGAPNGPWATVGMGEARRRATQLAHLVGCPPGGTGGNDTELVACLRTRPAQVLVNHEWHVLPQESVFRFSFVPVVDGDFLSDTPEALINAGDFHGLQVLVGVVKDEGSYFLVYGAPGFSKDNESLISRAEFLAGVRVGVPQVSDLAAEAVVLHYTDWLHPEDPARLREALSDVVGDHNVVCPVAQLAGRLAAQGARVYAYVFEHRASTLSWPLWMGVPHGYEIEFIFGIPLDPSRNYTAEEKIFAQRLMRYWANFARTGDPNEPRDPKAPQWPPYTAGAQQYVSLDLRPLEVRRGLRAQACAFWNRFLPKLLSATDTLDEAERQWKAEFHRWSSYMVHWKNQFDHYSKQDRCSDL

## C=C[C@](C)(O)CC[C@@H]1[C@@]2(C)CCCC(C)(C)[C@@H]2CC[C@@]1(C)O [Sclareol]
[1]
  Inhibition against AChE: significant inhibition

## Cc1c(C)c2c(c(C)c1O)CCC(C)(C(=O)O)O2 (stereo not shown) [Trolox, 6‐hydroxy‐2,5,7,8‐tetramethylchroman‐2‐carboxylic acid]
[2]
  IC50 of ABTS radical scavenging capacity: 6.15 ± 0.15 µg/mL
[3]
  IC50 of DPPH scavenging capacity: 9.94 ± 0.20 µg/mL

## COC(=O)C=Cc1ccccc1 [methyl cinnamate]
β-lactamase
  IC50: 11.6 µg/mL (≈ 71.5 µM)
